Measured values published in patent US11186544B2 (BRISTOL-MYERS SQUIBB COMPANY, priority 2017, dated 2021).
Read-outs that look alike come from different tables or passages of the source.

Key:
human FPR1 = human FPR1 (Homo sapiens (Human), UniProt P21462); test: FPR1 cyclic adenosine monophosphate (cAMP) assay; type: cell-based; conditions: CHO cells overexpressing human FPR1; inhibition of forskolin (10 μM) stimulated cAMP; read-out: hFPR1 cAMP EC50
Description: (§1) FPR2 and FPR1 Cyclic Adenosine Monophosphate (cAMP) Assays. A mixture of forskolin (5 μM final for FPR2 or 10 μM final for FPR1) and IBMX (200 μM final) were added to 384-well Proxiplates (Perkin-Elmer) pre-dotted with test compounds in DMSO (1% final) at final concentrations in the range of 0.020 nM to 100 μM. Chinese Hamster Ovary cells (CHO) overexpressing human FPR1 or human FPR2 receptors were cultured in F-12 (Ham's) medium supplemented with 10% qualified FBS, 250 μg/ml zeocin and 300 μg/ml hygromycin (Life Technologies). Reactions were initiated by adding 2,000 human FPR2 cells per well or 4,000 human FPR1 cells per well in Dulbecco's PBS (with calcium and magnesium) (Life Technologies) supplemented with 0.1% BSA (Perkin-Elmer). The reaction mixtures were incubated for 30 min at room temperature. The level of intracellular cAMP was determined using the HTRF HiRange cAMP assay reagent kit (Cisbio) according to manufacturer's instruction. Solutions of cryptate conjugated anti-cAMP and d2 flurorophore-labelled cAMP were made in a supplied lysis buffer separately. Upon completion of the reaction, the cells were lysed with equal volume of the d2-cAMP solution and anti-cAMP solution. After a 1-h room temperature incubation, time-resolved fluorescence intensity was measured using the Envision (Perkin-Elmer) at 400 nm excitation and dual emission at 590 nm and 665 nm. A calibration curve was constructed with an external cAMP standard at concentrations ranging from 1 μM to 0.1 pM by plotting the fluorescent intensity ratio from 665 nm emission to the intensity from the 590 nm emission against cAMP concentrations. The potency and activity of a compound to inhibit cAMP production was then determined by fitting to a 4-parametric logistic equation from a plot of cAMP level versus compound concentrations.

human FPR2 = human FPR2 (Homo sapiens (Human), UniProt P25090); test: FPR2 cyclic adenosine monophosphate (cAMP) assay; type: cell-based; conditions: CHO cells overexpressing human FPR2
Description: as §1, with “After a 1-h room temperature incubation, time-resolved fluorescence intensity was measured using the Envision (Perkin-Elmer) at 400 nm excitation and dual emission at 590 nm and 665 nm. A calibration curve was constructed with an external cAMP standard at concentrations ranging from 1 μM to 0.1 pM by plotting the fluorescent intensity ratio from 665 nm emission to the intensity from the 590 nm emission against cAMP concentrations.” left out

[1] = inhibition of forskolin (5 μM) stimulated cAMP, read-out: hFPR2 cAMP2 EC50
[2] = hFPR2 Assay, read-out: hFPR2 agonist activity EC50

human FPR1, sequence (P21462 whole entry): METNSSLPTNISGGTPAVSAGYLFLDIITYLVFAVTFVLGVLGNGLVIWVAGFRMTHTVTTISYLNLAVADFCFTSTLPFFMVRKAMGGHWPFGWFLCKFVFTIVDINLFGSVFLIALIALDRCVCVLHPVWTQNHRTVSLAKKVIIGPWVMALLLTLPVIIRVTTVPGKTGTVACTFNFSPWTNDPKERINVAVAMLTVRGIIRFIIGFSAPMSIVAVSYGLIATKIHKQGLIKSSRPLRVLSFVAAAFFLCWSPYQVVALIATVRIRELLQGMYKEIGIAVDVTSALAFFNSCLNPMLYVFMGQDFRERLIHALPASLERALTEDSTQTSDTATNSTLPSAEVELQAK
human FPR2, sequence (P25090 whole entry): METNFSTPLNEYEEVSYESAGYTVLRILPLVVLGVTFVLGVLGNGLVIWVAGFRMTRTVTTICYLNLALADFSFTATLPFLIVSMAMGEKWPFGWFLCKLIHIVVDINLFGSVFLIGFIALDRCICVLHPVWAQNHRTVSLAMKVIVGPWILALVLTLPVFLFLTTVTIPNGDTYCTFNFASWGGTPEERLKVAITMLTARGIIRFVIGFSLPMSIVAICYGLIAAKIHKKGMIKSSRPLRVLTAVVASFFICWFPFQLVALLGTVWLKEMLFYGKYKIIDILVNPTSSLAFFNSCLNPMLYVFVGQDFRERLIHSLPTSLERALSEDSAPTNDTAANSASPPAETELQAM

CN(c1ncccc1-c1ccc(N2CCC[C@@H](NC(=O)Nc3ccc(C(F)(F)F)cc3)C2=O)cc1)S(C)(=O)=O [Example 145] gave an EC50 (human FPR1) of 15 nM and an EC50 (human FPR2; [1]) of 0.36 nM.

Work on COc1ccc(NC(=O)N[C@@H]2CCCN(c3ccc(-c4ccccc4C(N)=O)cc3)C2=O)cc1Cl [Example 176] yielded an EC50 (human FPR1) of 1200 nM and an EC50 (human FPR2; [1]) of 780 nM.

NC(=O)c1ccc(-c2ccc(N3CCCC(NC(=O)Nc4ccc(C(F)(F)F)cc4)C3=O)cc2)cc1 (stereo not drawn) [Example 48, 4′-(2-oxo-3-(3-(4-(trifluoromethyl)phenyl)ureido)piperidin-1-yl)-[1,1′-biphenyl]-4-carboxamide] gave an EC50 (human FPR1) of 930 nM and an EC50 (human FPR2; [1]) of 560 nM.

CS(=O)(=O)Nc1ccccc1-c1ccc(N2CCC[C@@H](NC(=O)Nc3ccc(Cl)cc3)C2=O)cc1OC(F)(F)F [Example 300] showed an EC50 (human FPR2; [2]) of 5 to 40 nM.

With O=C(Nc1ccc(Cl)cc1)NC1CCCN(c2ccc(-c3cccnc3)cc2)C1=O (stereo not drawn) [Example 16, 1-(4-chlorophenyl)-3-(2-oxo-1-(4-(pyridin-3-yl)phenyl)piperidin-3-yl)urea] the EC50 (human FPR1) was 390 nM and the EC50 (human FPR2; [1]) was 9.3 nM.

Compound CC(N)c1cccc(-c2ccc(N3CCC[C@@H](NC(=O)Nc4ccc(C(F)(F)F)cn4)C3=O)c(F)c2F)c1 (stereo partly drawn) [Example 280, 1-((3R)-1-(3′-(1-Aminoethyl)-2,3-difluoro-[1,1′-biphenyl]-4-yl)-2-oxopiperidin-3-yl)-3-(5-(trifluoromethyl)pyridin-2-yl)urea] has an EC50 (human FPR2; [2]) of 5 to 40 nM.

Work on CS(=O)(=O)Nc1ccccc1-c1cc(F)c(N2CCC[C@@H](NC(=O)Nc3ccc(Cl)cc3)C2=O)c(F)c1 [Example 260, (R)—N-(4′-(3-(3-(4-chlorophenyl)ureido)-2-oxopiperidin-1-yl)-3′,5′-difluoro-[1,1′-biphenyl]-2-yl)methanesulfonamide] yielded an EC50 (human FPR1) of 210 nM and an EC50 (human FPR2; [1]) of 0.59 nM.

In the case of CS(=O)(=O)c1ccccc1-c1ccc(N2CCCC(NC(=O)Nc3ccc(F)cc3)C2=O)c(F)c1 (stereo not drawn) [Example 28, 1-(1-(3-fluoro-2′-(methylsulfonyl)-[1,1′-biphenyl]-4-yl)-2-oxopiperidin-3-yl)-3-(4-fluorophenyl)urea], the EC50 (human FPR1) is reported as 1200 nM and the EC50 (human FPR2; [1]) is reported as 560 nM.

CS(=O)(=O)Nc1ccccc1-c1ccc(N2CCC[C@@H](NC(=O)Nc3ccc(Cl)cc3F)C2=O)c(Cl)c1 [Example 299, 1-[(3R)-1-{3-chloro-2′-methanesulfonamido-[1,1′-biphenyl]-4-yl}-2-oxopiperidin-3-yl]-3-(4-chloro-2-fluorophenyl)urea] showed an EC50 (human FPR1) of 130 nM and an EC50 (human FPR2; [1]) of 5.5 nM.

COc1ccc(NC(=O)N[C@@H]2CCCN(c3ccc(-c4ccccc4NS(C)(=O)=O)cc3)C2=O)c(F)c1 [Example 197] gave an EC50 (human FPR1) of 220 nM and an EC50 (human FPR2; [1]) of 0.76 nM.

In the case of Cc1ccc(NC(=O)NC2CCCN(c3ccc(-c4cccnc4)cc3)C2=O)cc1 (stereo not drawn) [Example 15], the EC50 (human FPR1) is reported as 200 nM and the EC50 (human FPR2; [1]) is reported as 8.4 nM.

With CS(=O)(=O)Nc1c(F)cccc1-c1ccc(N2CCC[C@@H](NC(=O)Nc3ccc(Cl)cc3)C2=O)cc1 [Example 279, (R)-N-(4′-(3-(3-(4-Chlorophenyl)ureido)-2-oxopiperidin-1-yl)-3-fluoro-[1,1′-biphenyl]-2-yl]methanesulfonamide] the EC50 (human FPR2; [2]) was ≤ 5 nM.

CCOc1ncccc1-c1ccc(N2CCC[C@@H](NC(=O)Nc3ccc(C(F)(F)F)cc3)C2=O)cc1 [Example 129] was tested, and the EC50 (human FPR1) was 170 nM and the EC50 (human FPR2; [1]) was 9.4 nM.

Work on O=C(Nc1ccc(C(F)(F)F)cc1)N[C@H]1CCCN(c2ccc(-c3ccccc3CO)cc2)C1=O [Example 58] yielded an EC50 (human FPR1) of 280 nM and an EC50 (human FPR2; [1]) of 9.2 nM.

With COc1cc(-c2ccccc2NS(C)(=O)=O)ccc1N1CCC[C@@H](NC(=O)Nc2ccc(C(F)(F)F)cn2)C1=O [Example 256] the EC50 (human FPR1) was 1400 nM and the EC50 (human FPR2; [1]) was 17 nM.

CS(=O)(=O)Nc1ccccc1-c1ccc(N2CCC[C@@H](NC(=O)Nc3ccc(Cl)cc3F)C2=O)cc1 [Example 188] gave an EC50 (human FPR1) of 25 nM and an EC50 (human FPR2; [1]) of 0.13 nM.

For O=C(Nc1ccc(C(F)(F)F)cc1)N[C@@H]1CCCN(c2ccc(-c3cncc(N4CCOCC4)c3)cc2)C1=O [Example 166], the EC50 (human FPR1) was 330 nM and the EC50 (human FPR2; [1]) was 8 nM.

With CS(=O)(=O)Nc1ccccc1-c1ccc(N2CCC[C@@H](NC(=O)Nc3ccc(OC(F)F)nc3)C2=O)cc1 [Example 257] the EC50 (human FPR1) was 3500 nM and the EC50 (human FPR2; [1]) was 17 nM.

In the case of NC(=O)c1ccccc1-c1ccc(N2CCC[C@@H](NC(=O)Nc3ccc(Cl)cc3)C2=O)c(F)c1 [Example 78], the EC50 (human FPR1) is reported as 42 nM and the EC50 (human FPR2; [1]) is reported as 0.89 nM.

For N#Cc1ccccc1-c1ccc(N2CCC[C@@H](NC(=O)Nc3ccc(Cl)cc3)C2=O)cc1 [Example 76], the EC50 (human FPR1) was 10 nM and the EC50 (human FPR2; [1]) was 0.81 nM.

Compound O=C(Nc1ccc(Cl)cn1)N[C@@H]1C[C@@H](O)CN(c2ccc(-c3ccccc3F)cc2)C1=O [Example 269, 1-(5-Chloropyridin-2-yl)-3-((3R,5R)-1-(2′-fluoro-[1,1′-biphenyl]-4-yl)-5-hydroxy-2-oxopiperidin-3-yl)urea] has an EC50 (human FPR2; [2]) of 5 to 40 nM.

Cc1ccncc1-c1ccc(N2CCCC(NC(=O)Nc3ccc(C(F)(F)F)cc3)C2=O)cc1 (stereo not drawn) [Example 47, 1-(1-(4-(4-methylpyridin-3-yl)phenyl)-2-oxopiperidin-3-yl)-3-(4-(trifluoromethyl)phenyl)urea] gave an EC50 (human FPR1) of 1600 nM and an EC50 (human FPR2; [1]) of 330 nM.

For CC(N)c1cccc(-c2ccc(N3CCC[C@@H](NC(=O)Nc4ccc(Cl)cc4F)C3=O)c(F)c2F)c1 (stereo partly drawn) [Example 274, 1-((3R)-1-(3′-(1-Aminoethyl)-2,3-difluoro-[1,1′-biphenyl]-4-yl)-2-oxopiperidin-3-yl)-3-(4-chloro-2-fluorophenyl)urea], the EC50 (human FPR2; [2]) was ≤ 5 nM.

In the case of CS(=O)(=O)Nc1ccccc1-c1ccc(N2CCC[C@@H](NC(=O)Nc3ccc(Cl)cc3)C2=O)cc1 [Example 86], the EC50 (human FPR1) is reported as 32 nM and the EC50 (human FPR2; [1]) is reported as 0.14 nM.

Compound CS(=O)(=O)Nc1ccccc1-c1ccc(N2CCC[C@@H](NC(=O)Nc3ccc(C(F)(F)F)cc3)C2=O)cc1 [Example 66] has an EC50 (human FPR1) of 100 nM and an EC50 (human FPR2; [1]) of 0.32 nM.

Work on CS(=O)(=O)Nc1ccccc1-c1ccc(N2C[C@H](O)C[C@@H](NC(=O)Nc3ccc(Cl)cn3)C2=O)cc1 [Example 215] yielded an EC50 (human FPR1) of 260 nM and an EC50 (human FPR2; [1]) of 2 nM.

For Cc1cnc(NC(=O)NC2CCCN(c3ccc(-c4ccccc4S(C)(=O)=O)cc3F)C2=O)s1 (stereo not drawn) [Example 26, 1-(1-(3-fluoro-2′-(methylsulfonyl)-[1,1′-biphenyl]-4-yl)-2-oxopiperidin-3-yl)-3-(5-methylthiazol-2-yl)urea], the EC50 (human FPR1) was 210 nM and the EC50 (human FPR2; [1]) was 380 nM.

Work on CS(=O)(=O)Nc1ccccc1-c1ccc(N2C[C@H](O)C[C@@H](NC(=O)Nc3ccc(Cl)cc3F)C2=O)cc1 [Example 277, N-(4′-((3R,5R)-3-(3-(4-chloro-2-fluorophenyl)ureido)-5-hydroxy-2-oxopiperidin-1-yl)-[1,1′-biphenyl]-2-yl)methanesulfonamide] yielded an EC50 (human FPR1) of 8.4 nM and an EC50 (human FPR2; [1]) of 0.17 nM.

COc1ccc(NC(=O)NC2CCCN(c3ccc(-c4ccccc4S(C)(=O)=O)cc3F)C2=O)cc1 (stereo not drawn) [Example 17, 1-(1-(3-fluoro-2′-(methylsulfonyl)-[1,1′-biphenyl]-4-yl)-2-oxopiperidin-3-yl)-3-(4-methoxyphenyl)urea] was tested, and the EC50 (human FPR1) was 170 nM and the EC50 (human FPR2; [1]) was 10 nM.

For O=C(Nc1ccc(C(F)(F)F)cc1)N[C@@H]1CCCN(c2ccc(-c3cccc(F)c3F)cc2)C1=O [Example 125], the EC50 (human FPR1) was 330 nM and the EC50 (human FPR2; [1]) was 9 nM.

For N#Cc1ccccc1-c1ccc(N2CCC[C@@H](NC(=O)Nc3cnc(Cl)cn3)C2=O)c(F)c1F [Example 275, (R)-1-(5-Chloropyrazin-2-yl)-3-(1-(2′-cyano-2,3-difluoro-[1,1′-biphenyl]-4-yl)-2-oxopiperidin-3-yl)urea], the EC50 (human FPR2; [2]) was ≤ 5 nM.

For CS(=O)(=O)Nc1cccc(-c2ccc(N3CCC[C@@H](NC(=O)Nc4ccc(Cl)cc4)C3=O)cc2)c1F [Example 278, (R)-N-(4′-(3-(3-(4-Chlorophenyl)ureido)-2-oxopiperidin-1-yl)-2-fluoro-[1,1′-biphenyl]-3-yl)methanesulfonainide], the EC50 (human FPR2; [2]) was ≤ 5 nM.
